Patent publication EP0086647A2, “Pyrimidone compounds, their preparation, and pharmaceutical compositions containing them” (YAMANOUCHI PHARMACEUTICAL CO. LTD., priority 1982, dated 1983)
Where a name gives a salt, the structure may show the parent alone.

Experiments:
[1] = tested on: gastric acid secretion; assay: Acid inhibition, Shay (4hr.) / (Dog), results table; format: in vivo
[2] = Cytoprotective action (animal experiment methods, not described); format: in vivo; design: key: *: These compounds also have cytoprotective action

Compound	Acid Inhibition Shay(4hr.) (mg./kg.) (Dog) ([1]; dose 3mg (mg./kg.))	Acid Inhibition Shay(4hr.) (mg./kg.) (Dog) ([1]; dose 0.1mg (mg./kg.))	cytoprotective action [2]
CCN(CC)CCCc1c(C)[nH]c(CCSCc2csc(N=C(N)N)n2)nc1=O [Example 17, 2-(2-[[[2-((diaminomethylene)amino)-4-t:hiazolyl]methyl]-thio]ethyl]-5-(3-diethylaminopropyl)-6-methyl-4(1H)-pyrimidone tri-hydrochloride]	83%(3mg)	–	–
CCc1c(C)[nH]c(CCSCc2csc(N=C(N)N)n2)nc1=O [Example 27, 2-[2-[[[2-[(diaminomethylene)amino)-4-thiazolyl]methyl]thio]-ethyl]-5-ethyl-6-methyl-4(1H)-pyrimidone]	–	90%(0.1mg)	–
CCCc1c(C)[nH]c(CCSCc2csc(N=C(N)N)n2)nc1=O [Example 28]	–	60%(0.1mg)	–
C#CCc1c(C)[nH]c(CCSCc2csc(N=C(N)N)n2)nc1=O [Example 29, 2-[2-[[[2-[(diaminomethylene)amino]-4-thiazolyl]methyl]thio]-ethyl]-6-methyl-5-(2-propinyl)-4(1H)-pyrimidone]	–	95%(0.1mg)	–
CCCCc1c(C)[nH]c(CCSCc2csc(N=C(N)N)n2)nc1=O [Example 30, 2-[2-[[[2-[(diaminomethylene)amino]-4-thiazolyl]methyl]thio]-ethyl]-5-n-butyl-6-methy-1-4(1H)-pyrimidone di-hydrochloride]	–	70%(0.1mg)	R=butyl*
CCCCCc1c(C)[nH]c(CCSCc2csc(N=C(N)N)n2)nc1=O.Cl.Cl [Example 31, 2-[2-[[[2-[(diaminomethylene)amino]-4-thiazolyl]methyl]thio]-ethyl]-6-methyl-5-n-pentyl-4(1H)-pyrimidone di-hydrochloride]	–	95%(0.1mg)	R=amyl*
Cc1[nH]c(CCSCc2csc(N=C(N)N)n2)nc(=O)c1CCC(C)C [Example 32, 2-[2-[[[2-[(diaminomethylene)amino]-4-thiazolyl]methyl]thio]-ethyl)-6-methyl-5-(3-methylbutyl)-4(lH)-pyrimidone di-hydrochloride]	–	–	R=iso-amyl*
